Results as given in PMC11434290, “Pharmacokinetics and Dose Proportionality Study of a Novel Antiparkinsonian Agent, a 1H-1,2,4-Triazol-3-ylthio-conjugate of Prottremine” (Molecules, 2024).
Entries after “also recorded” stand apart in the source; their conditions may differ.

How the values were obtained:
[1] = tested on: MPTP-, haloperidol-, and rotenone-induced models; conditions: cited from earlier work; for Dose showing antiparkinsonian activity: various mouse and rat models (MPTP-, haloperidol-, rotenone-induced)
mice = conditions: acute toxicity; cited from earlier work
[2] = Pharmacokinetics of PA-96 after single oral (p.o.) administration to mice; type: in vivo, CD-1 mice; conditions: for Tmax / bioavailability / Cmax / half-life / AUC(0-t) / Vd/F: both sexes, CD-1, mouse, whole blood; for Tmax / Cmax / half-life / AUC(0-t) / Vd/F: po; for bioavailability: oral, assessed via AUC of i.v. injection at 1 mg/kg; for Vd/F: read-out: Vz/F_obs
Experimental: After the development and validation of the method for determination of PA-96 in mice blood, a preliminary pharmacokinetic study was carried out. The agent PA-96 was administered to two mice per os as a suspension in Tween-80 at a dose of 10 mg/kg, and blood samples were taken from the animals at 0.5, 1, 1.5, 2, 2.5, 3, 3.5, 4, 5, 5.5, and 24 h after administration. Four 10 µL samples were taken at each timepoint: two were spotted onto the paper and dried, and two others were precipitated using the ZnSO4 solution. All prepared samples were analysed, and the graph representing the PA-96 peak area values was plotted (Figure 6). […] As such, the PPT method for whole blood samples was chosen for the next experiments.
After administration, blood samples were taken from the tail vein of each animal at 5, 10, 20, 30, 40, 50, 60, 75, 90, 120, and 150 min, and the samples were prepared following the PPT protocol.
(§1) The LC–MS/MS analysis was carried out using a Shimadzu LC-20AD Prominence chromatograph equipped with a cooling autosampler, binary gradient pump, and column oven (Shimadzu, Japan) coupled with a 3200 QTRAP mass spectrometer (AB SCIEX, Framingham, MA, USA) equipped with an electrospray ionisation source (ESI). The mass spectrometer worked in positive mode and multiple reaction monitoring (MRM) detection mode for quantitation. Analyst 1.6.2 software (AB SCIEX, Framingham, MA, USA) was used for instrument control and data acquisition, and MultiQuant 2.1 software (AB SCIEX, Framingham, MA, USA) was used for quantitation. To calculate the main pharmacokinetic parameters, the Microsoft Excel plugin PKSolver was used.
(§2) CD-1 mice (male and female) were obtained from the SPF vivarium of the Institute of Cytology and Genetics, Russia. The mice weighed 25–30 g at the beginning of the experiment.
An accurately weighed amount of PA-96 was mechanically mixed with Tween-80 using a mortar and pestle followed by suspending the obtained sample in physiological solution. The animals (n = 2) received a single dose of 10 mg/kg per os (p.o.). The timepoints were 0.5, 1, 1.5, 2, 2.5, 3, 3.5, 4, 5, 5.5, and 24 h. At each timepoint, 10 µL of blood was taken from the tail vein, and the sample was prepared by DBS and PPT with ZnSO4 in methanol. Afterwards, the samples were analysed in accordance with the HPLC–MS/MS protocol.
In the next experiment, the sampling scheme was optimised by changing the timepoints as follows: 5, 10, 20, 30, 40, 50, 60, 75, and 90 min, and 2, 2.5, 3, 3.5, 4, and 5 h; this was in order to investigate the pharmacokinetics more thoroughly. The experiment design was not changed, but the sample preparation was carried out by the PPT method exclusively.
(§3) In order to investigate the bioavailability and dose proportionality, PA-96 was administered p.o. at the dosages of 1, 5, and 10 mg/kg and intravenously (i.v.) at the dosages of 1 and 10 mg/kg. For each experiment, we used 6–7 mice. The blood was drawn from the tail vein at the following timepoints: 3, 5, 10, 15, 30, 45, 60, 90, 120, and 150 min. The samples were prepared and analysed.

[3] = tested on: cultured naïve dopamine neurons; set-up: method as in PMID 36500381; conditions: in vitro; cited from earlier work
[4] = Stability of PA-96 in prepared samples under different storage conditions; type: physicochemical; conditions: within 7 days; +23 °C, +4 °C, −70 °C
Experimental: The stability of PA-96 in the prepared samples was investigated at different storage conditions, as mentioned in the experimental methods section.
(§4) To study the influence of the enzymes on the PA-96 stability in whole blood, mice blood spikes containing PA-96 in the concentration of 50 ng/mL were prepared. Aliquots of the spike were precipitated according to the protocol described above. Sampling was carried out at the following timepoints: 5, 10, 20, 30, 40, 50, 120, 180, and 240 min. The long-term stability of the samples was studied by the comparison of freshly prepared samples and samples prepared and kept in different conditions for 7 days. The storage conditions were the following: room temperature (+23 °C), household fridge (+4 °C), and Kelvinator (−70 °C). The acceptance criterion was a CV ≤ 15% for every day and any storing condition.

[5] = Stability of PA-96 in whole mouse blood; type: in vitro ADME, mice; conditions: spike 50 ng/mL, 5-240 min
Text: A crucial factor to consider is the stability of the compound in biological matrices. Both whole blood and plasma may contain enzymes able to metabolise the substance, and the metabolism rate can be relatively high. This can result in a rapid decrease in the substance concentration and an incorrect calibration curve. Additionally, if blood samples from experimental animals are dried as spots, metabolism during drying may lead to incorrect analyte concentrations. Considering these factors, we investigated the stability of the agent PA-96 in whole mouse blood.
as §4

[6] = Pharmacokinetics of PA-96 after double p.o. administration to mice; type: in vivo, CD-1 mice; conditions: for AUC(0-t) / Cmax / half-life / Vd/F: 5 mg/kg; for Vd/F: read-out: Vz/F_obs
Experimental: In our work, an experiment with double administration of the agent PA-96 was carried out. The substance was administered to mice (n = 6) two times at doses of 5 mg/kg within the interval of 4 h as a formulation in Tween-80. After the first administration, blood was collected from the tail vein of each animal at 5, 10, 20, 30, 40, 50, 60, 75, and 90 min, and 2, 2.5, 3, 3.5, and 4 h. After the administration of the second dose, blood was collected at the same timepoints, and all samples were prepared following the PPT protocol.
as §1, §2
To investigate the pharmacokinetics of PA-96 in a multiple dosing regimen, the dosage form was prepared as described above, but only half was administered to the animals (n = 6). The first portion, corresponding to a dose of 5 mg/kg, was administered to the mice followed by blood sampling at 5, 10, 20, 30, 40, 50, 60, 75, and 90 min, and 2, 2.5, 3, 3.5, and 4 h after administration. At the latter timepoint, the second dose was administered, and the blood was sampled at the same timepoints as listed above.

[7] = Pharmacokinetics of PA-96 after intravenous (i.v.) injection to mice; type: in vivo, CD-1 mice; conditions: for AUC(0-t) / Cmax / Tmax / half-life: both sexes, CD-1, mouse, whole blood, iv
Experimental: To evaluate the bioavailability of the agent PA-96, a suspension of the compound with Tween-80 was administered intravenously at doses of 1 and 10 mg/kg. After administration, blood in an amount of approximately 10 µL was collected from the tail vein of each animal at 5, 10, 15, 30, 45, 60, 90, 120, and 150 min, and samples were prepared following the PPT protocol.
Therefore, it was necessary to widen the operating concentration range of the calibration curve. To quantify PA-96 in these blood samples, we prepared and analysed spikes containing the agent in concentrations of 530, 1325, 2650, 3530, 8800, 10,600, and 21,200 ng/mL, which were used to construct a high-concentration calibration curve. In addition to these calibrators, quality control samples were prepared containing PA-96 at the concentrations of 1760, 5300, and 17,100 ng/mL (QCL, QCM, and QCH, respectively). […] As the objective of building this calibration curve was to evaluate the concentration of PA-96 only in several samples, the full validation of this expansion of the developed bioanalytical method was not performed.
as §1, §2
as §3, with “For each experiment, we used 6–7 mice.” left out

[8] = 5 mg/kg, single p.o., mice, mean ± SEM, n = 4
[9] = 10 mg/kg, single p.o., mice, mean ± SEM, n = 4
[10] = single p.o., 5 mg/kg, mice, mean ± SEM, n = 4
[11] = single p.o., 10 mg/kg, mice, mean ± SEM, n = 4
[12] = animal MPTP and haloperidol models of PD
[13] = both sexes, CD-1, mouse, whole blood, po, double p.o. 2×5 mg/kg, 1st administration, mean ± SEM, n = 6
[14] = both sexes, CD-1, mouse, whole blood, po, double p.o. 2×5 mg/kg, 2nd administration, mean ± SEM, n = 6

Structure (SMILES): C=C(C)[C@@H]1CC=C(C)[C@@H](O)[C@@H]1O [Prottremine, (1R,2R,6S)-3-methyl-6-(prop-1-en-2-yl)cyclohex-3-ene-1,2-diol]
- Dose showing antiparkinsonian activity [1]: 20 mg/kg
- LD50 (mice): 4250 mg/kg

Structure (SMILES): C=C(C)[C@@H]1CC=C(C)[C@@H](Sc2nc[nH]n2)[C@@H]1O [PA-96]
- Tmax ([2]; single p.o., 5 mg/kg, mice, mean ± SEM, n = 4, read-out: Tmax (converted)): 6.3 min
- Tmax ([2]; single p.o., 10 mg/kg, mice, mean ± SEM, n = 4, read-out: Tmax (converted)): 8.8 min
- bioavailability ([2]; p.o. 5 mg/kg, mice): ~7%
- bioavailability ([2]; p.o. 10 mg/kg, mice): ~35%
- Cmax [2, 8]: ~36 ng/mL
- half-life [2, 8]: 44 ± 13 min
- Cmax [2, 9]: ~588 ng/mL
- half-life [2, 9]: 15 min
- Tmax ([2]; p.o. doses of 5 mg/kg and 10 mg/kg, mice, read-out: Time of maximum concentration after administration): 5 to 10 min
- AUC(0-t) [2, 10]: 28.3 ng·h/mL
- Vd/F [2, 10]: 190 L/kg
- AUC(0-t) [2, 11]: 300 ng·h/mL
- Vd/F [2, 11]: 13.7 L/kg
- Signal (concentration) in blood samples ([2]; p.o. 1 mg/kg, n = 2, mice, LLOQ 25 ng/mL): lower than the LLOQ
- Time of complete elimination at oral administration ([2]; p.o. 5 and 10 mg/kg, mice): 2.5 to 3 h
- Increase in both Cmax and AUC on twofold increase in the dose ([2]; p.o. 5 vs 10 mg/kg, mice): by an order of magnitude
- Time of complete elimination ([2]; preliminary study, p.o. 10 mg/kg, n = 2 mice): 2.5 h
- Timepoint of maximum concentration ([2]; preliminary study, p.o. 10 mg/kg, n = 2 mice, first timepoint sampled): 30 min
- t1/2 [2, 11]: 15.2 ± 1.2 min
- Survival of cultured naïve dopamine neurons [3]: supported the survival; also recorded: improved potency
- Change of PA-96 concentration in prepared samples [4]: ≤ 11%
- Effect on motor deficits ([1]; MPTP and haloperidol-based mice models of Parkinson's disease): alleviated motor deficits
- Density of tyrosine hydroxylase positive neurons and dopamine concentration in the midbrain ([1]; MPTP-damaged brain): increased
- Antiparkinsonian activity relative to Prottremine [1, 12]: more active than Prottremine
- Dose at which antiparkinsonian effect was displayed [1, 12]: 1 mg/kg
- PA-96 concentration in whole mouse blood during stability investigation [5]: consistent within the accuracy of analysis error
- AUC(0-t) [6, 13]: 25 ng·h/mL
- Cmax [6, 13]: 60 ± 15 ng/mL
- half-life [6, 13]: 21 ± 4 min
- Vd/F [6, 13]: 108 ± 25 L/kg
- AUC(0-t) [6, 14]: 135 ng·h/mL
- Cmax [6, 14]: 58 ± 13 ng/mL
- half-life [6, 14]: 19 ± 3 min
- Vd/F [6, 14]: 25 ± 4 L/kg
- Tmax ([6]; both sexes, CD-1, mouse, whole blood, po, double p.o. 2×5 mg/kg, interval 4 h, 1st administration, mean ± SEM, n = 6): 10 min
- Accumulation after double administration (Cmax, AUC0-∞) ([6]; double p.o. 2×5 mg/kg, interval 4 h, mice): absence of its accumulation
- Time to full elimination after administration ([6]; p.o. 5 mg/kg, double administration experiment, mice): 4 h
- AUC(0-t) ([7]; 1 mg/kg, mean ± SEM, n = 6): 85 ng·h/mL
- Cmax ([7]; 1 mg/kg, mean ± SEM, n = 6): 390 ng/mL
- Tmax ([7]; 1 mg/kg, mean ± SEM, n = 6): 3.3 min
- half-life ([7]; 1 mg/kg, mean ± SEM, n = 6): 37 ± 10 min
- AUC(0-t) ([7]; 10 mg/kg, mean ± SEM, n = 2): 2170 ng·h/mL
- Cmax ([7]; 10 mg/kg, mean ± SEM, n = 2): > 7700 ng/mL
- half-life ([7]; 10 mg/kg, mean ± SEM, n = 2): 26.1 ± 2.9 min
- Tmax ([7]; 10 mg/kg, n = 2): 3 min
- Concentration level 1 h after administration ([7]; i.v. 1 and 10 mg/kg): several nanograms per mL
- Time in which concentration decreases twofold after injection ([7]; i.v. 1 and 10 mg/kg): 10 to 15 min
- Increase of AUC when the dose was increased tenfold ([7]; i.v. 1 vs 10 mg/kg): approximately 25 times
- Increase of Cmax when the dose was increased tenfold ([7]; i.v. 1 vs 10 mg/kg): twentyfold

Structure (SMILES): N[C@@H](Cc1ccc(O)c(O)c1)C(=O)O [L-DOPA, reference compound]
- Dose showing antiparkinsonian activity [1]: 50 to 100 mg/kg
